In one assay the target is T1, delta opioid receptor (Rattus norvegicus, UniProt P33533).
T1 construct: from tissue; host or cells: rat forebrain homogenate (Wistar rat)
The assay can be described thus: Rat Brain Delta Opioid Receptor Binding Assay. As to conditions: rat forebrain membranes, ~4 nM [3H]DPDPE, 25° C., 2.5 h; read-out: δ-opioid binding (Ki). Here is the method: (§1) Male, Wistar rats (150–250 g, VAF, Charles River, Kingston, N.Y.) are killed by cervical dislocation, and their brains removed and placed immediately in ice cold Tris HCl buffer (50 mM, pH 7.4). The forebrains are separated from the remainder of the brain by a coronal transection, beginning dorsally at the colliculi and passing ventrally through the midbrain-pontine junction. After dissection, the forebrains are homogenized in Tris buffer in a Teflon®-glass homogenizer. The homogenize is diluted to a concentration of 1 g of forebrain tissue per 80 mL Tris and centrifuged at 39,000×g for 10 min. The pellet is resuspended in the same volume of Tris buffer containing 5 mM MgCl2 with several brief pulses from a Polytron homogenizer. This particulate preparation is used for the delta opioid binding assays. Following incubation with the delta selective peptide ligand ˜4 nM [^3H]DPDPE at 25° C. for 2.5 h in a 96-well plate with total volume of 1 ml, the plate contents are filtered through Wallac filtermat B sheets on a Tomtec 96-well harvester. The filters are rinsed three times with 2 mL of 10 mM HEPES (pH7.4), and dried in a microwave oven 1:45 min twice. To each sample area 2×40 μl of Betaplate Scint scintillation fluid (LKB) is added and analyzed on a LKB (Wallac) 1205 BetaPlate liquid scintillation counter.
(§2) The data are used to calculate either the % inhibition compared to control binding (when only a single concentration of test compound is evaluated) or a Ki value (when a range of concentrations is tested). % inhibition is calculated as: [(total dpm-test compound dpm dpm)/(total dpm-nonspecific dpm)]*100. Kd and Ki values were calculated using GraphPad PRISM data analysis program.

In a further assay the target is T2, mu opioid receptor (Rattus norvegicus, UniProt P33535).
T2 construct: from tissue; host or cells: rat forebrain homogenate (Wistar rat)
T2 sequence (P33535 whole entry): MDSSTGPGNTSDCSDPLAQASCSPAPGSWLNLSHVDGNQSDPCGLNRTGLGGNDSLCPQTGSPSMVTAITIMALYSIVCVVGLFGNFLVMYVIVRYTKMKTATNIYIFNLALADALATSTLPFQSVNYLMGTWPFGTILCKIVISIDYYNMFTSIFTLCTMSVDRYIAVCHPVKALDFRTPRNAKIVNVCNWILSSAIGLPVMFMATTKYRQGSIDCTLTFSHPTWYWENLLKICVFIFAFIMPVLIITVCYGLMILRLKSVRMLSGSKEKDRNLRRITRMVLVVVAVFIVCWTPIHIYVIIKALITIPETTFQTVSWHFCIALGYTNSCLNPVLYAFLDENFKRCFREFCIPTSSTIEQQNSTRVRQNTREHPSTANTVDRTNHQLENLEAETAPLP
Briefly: Rat Brain mu Opioid Receptor Binding Assay. As to conditions: rat forebrain membranes, ~0.8 nM [3H]DAMGO, 25° C., 2.5 h; read-out: μ-opioid binding (Ki). As for the experimental part:
as §1, with “mu-opioid” for “delta opioid”, “mu” for “delta”, “˜0.8” for “˜4”, “[^3H]DAMGO” for “[^3H]DPDPE”, “total” for “total volume of”
as §2

The text below walks through data of US7041681B2, “Compounds as opioid receptor modulators” (Janssen Pharmaceutica N.V., priority 2002, dated 2006).

T1 sequence (P33533 whole entry): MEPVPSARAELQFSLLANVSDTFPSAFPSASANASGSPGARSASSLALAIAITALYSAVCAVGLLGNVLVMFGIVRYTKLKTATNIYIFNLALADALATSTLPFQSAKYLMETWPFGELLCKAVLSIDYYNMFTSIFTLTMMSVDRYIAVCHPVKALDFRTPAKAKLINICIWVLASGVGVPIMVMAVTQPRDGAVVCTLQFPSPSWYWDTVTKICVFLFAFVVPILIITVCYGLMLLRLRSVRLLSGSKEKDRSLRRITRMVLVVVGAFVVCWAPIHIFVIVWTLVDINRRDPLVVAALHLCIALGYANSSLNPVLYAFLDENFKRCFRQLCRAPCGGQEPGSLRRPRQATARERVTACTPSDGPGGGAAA

For orientation: Ki means a measure of affinity in units of concentration, obtained from inhibition or displacement. As to `Cc1cc(O)cc(C)c1CC(N)C(=O)N1CCCCC1c1nc(-c2ccccc2)c[nH]1` (stereo not drawn) [Cmpd 34], the values for the Ki on delta opioid receptor and on mu opioid receptor were 1.86 nM and 0.05 nM, respectively.
In the case of `Cc1cc(O)cc(C)c1C[C@H](N)C(=O)N1Cc2ccccc2C[C@H]1c1nc(-c2ccccc2)c(Cl)[nH]1` [Cmpd 133], the Ki on delta opioid receptor is 0.12 nM; on mu opioid receptor, 0.18 nM.
On the same counts, the results for `N#Cc1ccc(C[C@H](N)C(=O)N2CCCC[C@H]2c2nc(-c3ccccc3)c[nH]2)cc1` [Cmpd 35] are 476 nM and 869 nM.
As to `Cc1[nH]c([C@@H]2Cc3ccccc3CN2C(=O)[C@@H](N)Cc2ccc(F)cc2)nc1-c1ccccc1` [Cmpd 143], the Ki at delta opioid receptor came out at 687 nM; on mu opioid receptor, 12800 nM.
On the same counts, the results for `C[C@](N)(Cc1ccc(OCc2ccccc2)cc1)C(=O)N1Cc2ccccc2C[C@H]1c1nc(-c2ccccc2)c[nH]1` [Cmpd 122] are 346 nM and 2520 nM.
For `CC(=O)Nc1ccc(C[C@H](N)C(=O)N2Cc3ccccc3C[C@H]2c2nc(-c3ccccc3)c(C)[nH]2)cc1` [Cmpd 141] the same measures were 34 nM and 207 nM.
For `O=C([C@H](Cc1ccc(O)cc1)NCc1ccccc1)N1Cc2ccccc2C[C@@H]1c1nc(-c2ccccc2)c[nH]1` [Cmpd 134] the same measures were 10000 nM and 329 nM.
With `N[C@@H](Cc1ccc(C(=O)Nc2ccccc2)cc1)C(=O)N1CCCC[C@H]1c1nc(-c2ccccc2)c[nH]1` [Cmpd 13], the Ki stood at 656 nM at delta opioid receptor and 27.7 nM at mu opioid receptor.
As for `CC(N)(Cc1ccc(OCc2ccccc2)cc1)C(=O)N1CCCCC1c1nc(-c2ccccc2)c[nH]1` (stereo not drawn) [Cmpd 26], the Ki turned out to be 628 nM at delta opioid receptor and 87 nM at mu opioid receptor.
In the case of `CN[C@@H](Cc1ccc(OC(=O)C(C)(C)C)cc1)C(=O)N1Cc2ccccc2C[C@H]1c1nc(-c2ccccc2)c[nH]1` [Cmpd 128], the Ki on delta opioid receptor was 5.2 nM; at mu opioid receptor, 213 nM.
For the compound `COc1cc(C)c(C[C@H](N)C(=O)N2CCCC[C@H]2c2nc(-c3ccccc3)c[nH]2)c(C)c1` [Cmpd 27], the Ki at delta opioid receptor worked out at 1000 nM; on mu opioid receptor, 8.56 nM.
As for `N[C@@H](Cc1ccc(O)cc1)C(=O)N1CCCC[C@@H]1c1cccc(-c2ccccc2)c1` [Cmpd 31], the Ki was 10000 nM at delta opioid receptor and 565 nM on mu opioid receptor.
As to `N[C@@H](Cc1ccc(O)cc1)C(=O)N1CCCC[C@H]1c1nc(-c2ccccc2)no1` [Cmpd 20], the Ki turned out to be 10000 nM at delta opioid receptor and 231 nM on mu opioid receptor.
Consider `Cc1cc(O)cc(C)c1CC(N)C(=O)N1Cc2ccccc2CC1c1nc(-c2ccccc2)c[nH]1` (stereo not drawn) [Cmpd 131], for which the values for the Ki on delta opioid receptor and on mu opioid receptor were 0.09 nM and 0.3 nM, respectively.
Take `Cc1cc(O)cc(C)c1C[C@H](N)C(=O)N1Cc2ccccc2C[C@H]1c1nc(-c2ccccc2)c(C)[nH]1` [Cmpd 149]: the Ki is 0.8 nM at delta opioid receptor and 3 nM at mu opioid receptor.
For `NC(=O)c1ccc(C[C@H](N)C(=O)N2CCCC[C@H]2c2nc(-c3ccccc3)c[nH]2)cc1` [Cmpd 15] the same measures were 65.3 nM and 2.6 nM.
On the same counts, the results for `Cc1cc(O)cc(C)c1C[C@H](N)C(=O)N1Cc2ccccc2C[C@H]1c1nc(-c2ccccc2)c(Br)[nH]1` [Cmpd 132] are 0.1 nM and 0.17 nM.
On the same counts, the results for `CCNC(=O)c1ccc(C[C@H](N)C(=O)N2CCCC[C@H]2c2nc(-c3ccccc3)c[nH]2)cc1` [Cmpd 1] are 20.9 nM and 0.15 nM.
As for `N[C@@H](Cc1cc(F)c(O)c(F)c1)C(=O)N1CCCC[C@H]1c1nc(-c2ccccc2)c[nH]1` [Cmpd 24], the Ki at delta opioid receptor is 5660 nM; on mu opioid receptor, 9.27 nM.
Consider `CN[C@@H](Cc1ccc(O)cc1)C(=O)N1Cc2ccccc2C[C@H]1c1nc(-c2ccccc2)c(C)[nH]1` [Cmpd 157], for which the Ki turned out to be 0.57 nM on delta opioid receptor and 30 nM on mu opioid receptor.
On the same counts, the results for `CC(=O)Oc1cc(C)c(CC(N)C(=O)N2Cc3ccccc3CC2c2nc(-c3ccccc3)c[nH]2)c(C)c1` (stereo not drawn) [Cmpd 113] are 0.2 nM and 0.5 nM.
For `N[C@@H](Cc1cccc(O)c1)C(=O)N1Cc2ccccc2C[C@H]1c1nc(-c2ccccc2)c[nH]1` [Cmpd 161] the same measures were 133 nM and 480 nM.
Turning to `N[C@@H](Cc1ccc(Cl)cc1)C(=O)N1Cc2ccccc2C[C@H]1c1nc(-c2ccccc2)c[nH]1` [Cmpd 144], the values for the Ki at delta opioid receptor and at mu opioid receptor were 1130 nM and 5260 nM, respectively.
Take `NC(Cc1ccc(C(=O)O)cc1)C(=O)N1Cc2ccccc2CC1c1nc(-c2ccccc2)c[nH]1` (stereo not drawn) [Cmpd 106]: the Ki amounted to 5200 nM on delta opioid receptor and 5780 nM at mu opioid receptor.
As to `CC(N)(Cc1ccc(O)cc1)C(=O)N1Cc2ccccc2CC1c1nc(-c2ccccc2)c[nH]1` (stereo not drawn) [Cmpd 121], the Ki amounted to 1.32 nM at delta opioid receptor and 38 nM on mu opioid receptor.
On the same counts, the results for `Cc1cc(OC(=O)C(C)(C)C)cc(C)c1C[C@H](N)C(=O)N1Cc2ccccc2C[C@H]1c1nc(-c2ccccc2)c[nH]1` [Cmpd 116] are 3.5 nM and 9.6 nM.
As for `CC(=O)c1ccc(C[C@H](N)C(=O)N2Cc3ccccc3C[C@H]2c2nc(-c3ccccc3)c[nH]2)cc1` [Cmpd 110], the Ki amounted to 30.4 nM on delta opioid receptor and 413 nM on mu opioid receptor.
On the same counts, the results for `N#Cc1ccc(CC(N)C(=O)N2Cc3ccccc3CC2c2nc(-c3ccccc3)c[nH]2)cc1` (stereo not drawn) [Cmpd 160] are 752 nM and 1340 nM.
For `N[C@@H](Cc1ccc(S(N)(=O)=O)cc1)C(=O)N1CCCC[C@H]1c1nc(-c2ccccc2)c[nH]1` [Cmpd 5], the Ki at delta opioid receptor came out at 6180 nM; at mu opioid receptor, 40.8 nM.
On the same counts, the results for `COc1ccc(CC(N)C(=O)N2Cc3ccccc3CC2c2nc(-c3ccccc3)c(C)[nH]2)cc1` (stereo not drawn) [Cmpd 154] are 10000 nM and 10000 nM.
Consider `N[C@@H](Cc1ccc(C(=O)Nc2ccccc2)cc1)C(=O)N1Cc2ccccc2C[C@H]1c1nc(-c2ccccc2)c[nH]1` [Cmpd 111], for which the figures for the Ki on delta opioid receptor and on mu opioid receptor were 103 nM and 293 nM, respectively.
On the same counts, the results for `CNC(Cc1c(C)cc(OC)cc1C)C(=O)N1Cc2ccccc2CC1c1nc(-c2ccccc2)c[nH]1` (stereo not drawn) [Cmpd 146] are 668 nM and 817 nM.
On to `CN(C)C(=O)c1ccc(C[C@H](N)C(=O)N2CCCC[C@H]2c2nc(-c3ccccc3)c[nH]2)cc1` [Cmpd 4], for which the Ki turned out to be 764 nM on delta opioid receptor and 135 nM at mu opioid receptor.
